“And” between values parts separate entries of the source, which are not always exact repeats. Equal values may be shown once.
Tests used:
Assay type in all cases: cell-based, human
[1] = test system: HEK 293 cells; experiment: MTT cell viability assay, non-cancerous HEK 293; conditions: Homo sapiens, HEK293, 48 h, mean ± SD, n = 3
Procedure, shortened: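 Cells grown in DMEM/10% FBS were seeded at 1 × 10^5 cells/mL and exposed to compounds at 0.5–200 µM for 48 h. Formazan was dissolved in DMSO and read at 570 nm, with cytotoxicity expressed relative to untreated control (0%). IC50 came from a four-parameter logistic fit, averaged over three independent runs.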

[2] = test system: MCF-7 cells; experiment: Total oxidative status (TOS), MCF-7; conditions: MCF-7, IC50 concentration of compound, 48 h; H2O2 250 µM positive control; mean ± SD, n = 3
Protocol: TOS were evaluated using a commercially available kit (Rel Assay Diagnostics®, Gaziantep, Turkey) according to the manufacturer’s instructions. […] The TOS assay quantifies oxidizing agents based on their ability to convert an iron (II) ion chelator complex to iron (III) ions. The results were calibrated against hydrogen peroxide (H2O2, 250 µM) as a positive control for 48 h and expressed as µmol H2O2 equivalents per liter. The analysis was performed in three independent biological replicates (n = 3).

[3] = test system: HeLa cells; experiment: MTT cell viability assay, HeLa
Procedure, shortened: (§1)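 Cells exposed to compounds at 0.5–200 µM for 48 h in DMEM with 10% FBS at 37 °C, 5% CO2; formazan dissolved in DMSO and read at 570 nm. Cytotoxicity relative to untreated control; IC50 from four-parameter logistic fit, mean of three independent measurements, triplicate samples.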

[4] = test system: MCF-7 cells; experiment: Cell cycle analysis (PI staining, flow cytometry), MCF-7; conditions: MCF-7, IC50 concentration, 48 h, mean ± SEM, n = 3
Protocol: Cell cycle distribution was assessed by propidium iodide (PI) staining and flow cytometry. HeLa, MCF-7, and A549 cells were seeded in 6-well plates at a density of 1 × 10^5 cells per well and allowed to attach overnight. […] Following exposure, both adherent and floating cells were collected, washed twice with cold phosphate-buffered saline (PBS, pH 7.4), and fixed overnight in 70% cold ethanol at 4 °C. After fixation, the cells were centrifuged and resuspended in 500 µL of PI/RNase staining solution containing 50 µg/mL PI and 100 µg/mL RNase A (Sigma-Aldrich®, St. Louis, MO, USA), followed by incubation in the dark for 30 min at 37 °C. The stained samples were analyzed using a Muse™ Cell Analyzer (Merck, Millipore, Germany) equipped with a 488 nm excitation laser and a 617 nm emission filter. A minimum of 10,000 events per sample were acquired after exclusion of debris and doublets via FSC-A vs. FSC-H gating. The DNA content histograms were generated automatically, and cell populations were expressed as percentages of G0/G1, S, and G2/M phases using the Muse™ Cell Cycle Analysis Software 1.5.0.0. All assays were conducted in triplicate biological repeats (n = 3), and results were reported as mean ± SEM.

[5] = test system: MCF-7 cells; experiment: MTT cell viability assay, MCF-7
Procedure, shortened: as §1

Compound: O=C(O)Cn1c(=O)n(CC(=O)O)c2cc(Cl)c(Cl)cc21 [Compound 6, 2,2′-(5,6-Dichloro-2-oxo-1H-benzo[d]imidazole-1,3(2H)-diyl)diacetic Acid]
- IC50 [1]: 62.7 ± 3.62 µM
- TOS [2]: 6.9 ± 0.5 µmol H2O2 eq/L and 6.9 ± 0.5 ^a,b µmol H2O2 eq/L
- IC50 ([3]; Homo sapiens, HeLa, MTT, 48 h, mean ± SD, n = 3): 31.2 ± 1.8 µM
- HeLa Selectivity Index (SI) ([3]; SI = IC50 (HEK 293)/IC50 (HeLa)): 2
- cells in G0/G1 phase [4]: 66.1 ± 1.9%
- cells in G2/M phase [4]: 14.9 ± 1.3%
- cells in S phase [4]: 19.0 ± 1.4%
- IC50 ([5]; Homo sapiens, MCF7, MTT, 48 h, mean ± SD, n = 3): 28.3 ± 1.63 µM
- MCF-7 Selectivity Index (SI) ([5]; SI = IC50 (HEK 293)/IC50 (MCF-7)): 2.21

From PMC12735921, “Evaluation of Antiproliferative Activity and Molecular Modeling Studies of Some Novel Benzimidazolone-Bridged Hybrid Compounds” (Pharmaceuticals, 2025)
